Laboratory results as given in US5605921A, “Triazole derivatives and salts thereof, and antifungal agent containing the same” (Toyama Chemical Co., Ltd., priority 1991, dated 1997).
Values after ≈ are worked out from the molar mass of the structure shown.

Key:
[1] = tested on: Aspergillus fumigatus IFO8868; test: Therapeutic effect, oral, mice infected with Aspergillus fumigatus IFO8868 (4), Table 2d; type: in vivo; conditions: average survival days of Ketoconazole taken as 100; Aspergillus fumigatus 5.8×10^6 cells/mouse i.v.; 0.8 mg/mouse oral, 2 hours after infection and once daily for six consecutive days; 10 days observation; 10 mice
Procedure: (4) The therapeutic effects of the present compounds, when they were administered orally, were examined using mice infected with Aspergillus fumigatus IFO8868.
Aspergillus fumigatus IFO8868 was injected in a proportion of 5.8×10^6 cells/mouse to a group of 10 ICR strain male mice (weight: 19-21 g) intravenously at the tails, whereby the mice were infected with the fungi. […] The relative therapeutic index of the test compound was determined from the average survival days.
The results are shown in Table 2d, in which the relative therapeutic index of each test compound is a value calculated by taking the average survival days of Ketoconazole as 100.

[2] = tested on: Candida albicans ON28; test: Minimum inhibitory concentration (MIC) against Candida albicans ON28; type: cell-based; conditions: ON28, 72 h, TC broth medium, 10^4 spores/ml, 37° C., 3 days
Procedure: (§1) MIC was determined in accordance with the method of M. S. Marriott [25th Interscience Conference on Antimicrobial Agents and Chemotherapy, p. 243 (1985)].
(§2) Candida albicans ON28 was cultured in a sabouraud dextrose agar medium containing 10 g of neopeptone, 20 g of glucose and 15 g of agar per liter, at 30° C. for 1-2 days. The yeast cells were suspended in sterile distilled water. Separately, Aspergillus fumigatus IFO8868 was cultured in a potato dextrose agar medium (manufactured by Nissui Pharmaceutical Co., Ltd.) at 30° C. until the conidia were formed abundantly. The formed conidia were suspended in a sterile physiological saline containing 0.1% of Tween 80. Each of the Candida albicans suspension and the Aspergillus fumigatus suspension was inoculated into a TC broth medium (containing 1.17 g of an yeast carbon base, 0.25 g of ammonium sulfate, 2.0 ml of a 50-fold concentrate of L-glutamic acid-containing MEM amino acid, 20 ml of a 0.5M phosphate buffer of pH 7.5 and 1.33 ml of 7.5% sodium hydrogencarbonate per 100 ml) containing a test compound, so that the final fungal amount became 10^4 spores/ml. Then, culture was conducted at 37° C. for 3 days. Thereafter, the growth of fungi was examined. The minimum concentration of test compound at which the growth of fungi had been inhibited, was taken as MIC (μg/ml).

[3] = tested on: Aspergillus fumigatus IFO8868; test: Minimum inhibitory concentration (MIC) against Aspergillus fumigatus IFO8868; type: cell-based; conditions: IFO8868, 72 h, TC broth medium, 10^4 spores/ml, 37° C., 3 days
Procedure: as §1, §2

[4] = tested on: Candida albicans ON28; test: Therapeutic effect, oral, mice infected with Candida albicans ON28 (3), Table 2c; type: in vivo, ICR strain male mice infected with Candida albicans ON28; conditions: average survival days of Ketoconazole taken as 100; Candida albicans 5.7×10^6 cells/mouse i.v.; 0.1 mg/mouse oral, 2 hours after infection; 10 days observation; 10 mice
Procedure: (3) The therapeutic effects of the present compounds, when they were administered orally, were examined using mice infected with Candida albicans ON28.
Candida albicans ON28 was injected in a proportion of 5.7×10^6 cells/mouse to a group of 10 ICR strain male mice (weight: 19-21 g) intravenously at the tails, whereby the mice were infected with the fungi. […] The relative therapeutic index of the test compound was determined from the average survival days.
The results are shown in Table 2c, in which the relative therapeutic index of each test compound is a value calculated by taking the average survival days Ketoconazole as 100.

Structure (SMILES) | Relative therapeutic index [1] | MIC [2] | MIC [3] | Relative therapeutic index [4]
CNC(=O)C(F)(F)C(O)(Cn1cncn1)c1ccc(F)cc1F (single isomer, unassigned) [Example 143] | 242 | 0.2 µg/mL (≈ 0.602 µM) | 25 µg/mL (≈ 75.2 µM) | 450
CCNC(=O)C(F)(F)C(O)(Cn1cncn1)c1ccc(F)cc1F (single isomer, unassigned) [Example 144] | – | 0.1 µg/mL (≈ 0.289 µM) | 6.25 µg/mL (≈ 18 µM) | –
O=C(NC1CC1)C(F)(F)C(O)(Cn1cncn1)c1ccc(F)cc1F (single isomer, unassigned) [Example 145] | 353 | 0.1 µg/mL (≈ 0.279 µM) | 12.5 µg/mL (≈ 34.9 µM) | 409
CNC(=O)C(F)(F)C(O)(Cn1cncn1)c1ccc(F)cc1Cl (single isomer, unassigned) [Example 147] | 526 | 0.1 µg/mL (≈ 0.287 µM) | 6.25 µg/mL (≈ 17.9 µM) | 414
O=C(NC1CC1)C(F)(F)C(O)(Cn1cncn1)c1ccc(F)cc1Cl (single isomer, unassigned) [Example 148] | – | 0.1 µg/mL (≈ 0.267 µM) | 3.13 µg/mL (≈ 8.35 µM) | –
O=C(NC1CC1)C(F)(F)C(O)(Cn1cncn1)c1ccccc1Cl (stereo not shown) [Example 3] | – | 0.39 µg/mL (≈ 1.09 µM) | 12.5 µg/mL (≈ 35 µM) | –
CC1(NC(=O)C(F)(F)C(O)(Cn2cncn2)c2ccc(F)cc2F)CC1 (stereo not shown) [Example 4] | – | 0.1 µg/mL (≈ 0.269 µM) | 50 µg/mL (≈ 134 µM) | –
O=C(NC1(c2ccc(Cl)cc2)CC1)C(F)(F)C(O)(Cn1cncn1)c1ccc(F)cc1F (stereo not shown) [Example 5] | – | ≤ 0.05 µg/mL | 12.5 µg/mL (≈ 26.7 µM) | –
O=C(NC1CC1)C(F)(F)C(O)(Cn1cncn1)c1ccccc1F (stereo not shown) [Example 8, N-cyclopropyl-2,2-difluoro-3-(2-fluorophenyl)-3-hydroxy-4-(1H-1,2,4-triazol-1-yl)butanamide] | – | 0.78 µg/mL (≈ 2.29 µM) | 25 µg/mL (≈ 73.5 µM) | –
CNC(=O)C(F)(F)C(O)(Cn1cncn1)c1ccc(F)cc1F (stereo not shown) [Example 11] | 174 | 0.2 µg/mL (≈ 0.602 µM) | 100 µg/mL (≈ 301 µM) | 423
CCCNC(=O)C(F)(F)C(O)(Cn1cncn1)c1ccc(F)cc1F (stereo not shown) [Example 16] | – | ≤ 0.05 µg/mL | 25 µg/mL (≈ 69.4 µM) | –
C=CCNC(=O)C(F)(F)C(O)(Cn1cncn1)c1ccc(F)cc1F (stereo not shown) [Example 17] | – | 0.1 µg/mL (≈ 0.279 µM) | 12.5 µg/mL (≈ 34.9 µM) | –
O=C(NC1CCCC1)C(F)(F)C(O)(Cn1cncn1)c1ccc(F)cc1F (stereo not shown) [Example 20] | – | ≤ 0.05 µg/mL | 100 µg/mL (≈ 259 µM) | –
O=C(NC1CCCCC1)C(F)(F)C(O)(Cn1cncn1)c1ccc(F)cc1F (stereo not shown) [Example 21] | – | ≤ 0.05 µg/mL | 100 µg/mL (≈ 250 µM) | –
O=C(NCc1ccc(Cl)cc1)C(F)(F)C(O)(Cn1cncn1)c1ccc(F)cc1F (stereo not shown) [Example 22] | – | ≤ 0.05 µg/mL | 12.5 µg/mL (≈ 28.2 µM) | –
CC(C)NC(=O)C(F)(F)C(O)(Cn1cncn1)c1ccc(F)cc1F (stereo not shown) [Example 33] | – | 0.2 µg/mL (≈ 0.555 µM) | 50 µg/mL (≈ 139 µM) | –
CC(C)CNC(=O)C(F)(F)C(O)(Cn1cncn1)c1ccc(F)cc1F (stereo not shown) [Example 35] | – | ≤ 0.05 µg/mL | 25 µg/mL (≈ 66.8 µM) | –
CC1CN(C(=O)C(F)(F)C(O)(Cn2cncn2)c2ccc(F)cc2F)CC(C)O1 (stereo not shown) [Example 39, 4-[3-(2,4-difluorophenyl)-2,2-difluoro-3-hydroxy-4-(1H-1,2,4-triazol-1-yl)butanoyl]-2,6-dimethylmorpholine] | – | 6.25 µg/mL (≈ 15 µM) | 100 µg/mL (≈ 240 µM) | –
O=C(Nc1ccc(Cl)cc1)C(F)(F)C(O)(Cn1cncn1)c1ccc(F)cc1F (stereo not shown) [Example 42, N-(4-chlorophenyl)-3-(2,4-difluorophenyl)-2,2-difluoro-3-hydroxy-4-(1H-1,2,4-triazol-1-yl)butanamide] | – | ≤ 0.05 µg/mL | 50 µg/mL (≈ 117 µM) | –
Cc1ccc(NC(=O)C(F)(F)C(O)(Cn2cncn2)c2ccc(F)cc2F)cc1 (stereo not shown) [Example 43] | – | ≤ 0.05 µg/mL | 25 µg/mL (≈ 61.2 µM) | –

Structure (SMILES) | Relative therapeutic index [1] | MIC [2] | MIC [3] | Relative therapeutic index [4]
Cc1ccc(NC(=O)C(F)(F)C(O)(Cn2cncn2)c2ccc(F)cc2F)c(C)c1 (stereo not shown) [Example 44] | – | ≤ 0.05 µg/mL | 1.56 µg/mL (≈ 3.69 µM) | –
COc1ccccc1NC(=O)C(F)(F)C(O)(Cn1cncn1)c1ccc(F)cc1F (stereo not shown) [Example 45] | – | ≤ 0.05 µg/mL | 50 µg/mL (≈ 118 µM) | –
CC(C)(C)NC(=O)C(F)(F)C(O)(Cn1cncn1)c1ccc(F)cc1F (stereo not shown) [Example 51] | – | 0.1 µg/mL (≈ 0.267 µM) | 12.5 µg/mL (≈ 33.4 µM) | –
NC(=O)C(F)(Cc1ccccc1)C(O)(Cn1cncn1)c1ccc(F)cc1F (stereo not shown) [Example 56] | – | 0.39 µg/mL (≈ 0.999 µM) | 100 µg/mL (≈ 256 µM) | –
CCNC(=O)C(F)(F)C(O)(Cn1cncn1)c1ccccc1 (stereo not shown) [Example 69] | – | 0.39 µg/mL (≈ 1.26 µM) | 50 µg/mL (≈ 161 µM) | –
CNC(=O)C(F)(F)C(O)(Cn1cncn1)c1ccccc1F (stereo not shown) [Example 72] | – | 0.39 µg/mL (≈ 1.24 µM) | 50 µg/mL (≈ 159 µM) | –
CCNC(=O)C(F)(F)C(O)(Cn1cncn1)c1ccccc1F (stereo not shown) [Example 73] | – | 0.39 µg/mL (≈ 1.19 µM) | 25 µg/mL (≈ 76.2 µM) | –
CNC(=O)C(F)(F)C(O)(Cn1cncn1)c1ccccc1Cl (stereo not shown) [Example 74] | – | 0.78 µg/mL (≈ 2.36 µM) | 12.5 µg/mL (≈ 37.8 µM) | –
CCNC(=O)C(F)(F)C(O)(Cn1cncn1)c1ccccc1Cl (stereo not shown) [Example 75] | – | 0.2 µg/mL (≈ 0.58 µM) | 6.25 µg/mL (≈ 18.1 µM) | –
CNC(=O)C(F)(F)C(O)(Cn1cncn1)c1ccc(F)cc1Cl (stereo not shown) [Example 80] | 416 | 0.39 µg/mL (≈ 1.12 µM) | 12.5 µg/mL (≈ 35.8 µM) | 455
CCNC(=O)C(F)(F)C(O)(Cn1cncn1)c1ccc(F)cc1Cl (stereo not shown) [Example 81] | – | 0.1 µg/mL (≈ 0.276 µM) | 3.13 µg/mL (≈ 8.63 µM) | –
CCNC(=O)C(F)(F)C(O)(Cn1cncn1)c1ccc(Cl)cc1F (stereo not shown) [Example 83] | – | 0.1 µg/mL (≈ 0.276 µM) | 25 µg/mL (≈ 68.9 µM) | –
O=C(NC1CC1)C(F)(F)C(O)(Cn1cncn1)c1ccc(Cl)cc1Cl (stereo not shown) [Example 85] | – | 0.1 µg/mL (≈ 0.256 µM) | 12.5 µg/mL (≈ 32 µM) | –
CCNC(=O)C(F)(F)C(O)(Cn1cncn1)c1cc(F)c(F)cc1F (stereo not shown) [Example 88] | – | 0.2 µg/mL (≈ 0.549 µM) | 50 µg/mL (≈ 137 µM) | –
CCCCNC(=O)C(F)(F)C(O)(Cn1cncn1)c1ccc(F)cc1F (stereo not shown) [Example 114] | – | 0.05 µg/mL (≈ 0.134 µM) | 12.5 µg/mL (≈ 33.4 µM) | –
CCNC(=O)C(F)(F)C(O)(Cn1cncn1)c1cc(F)ccc1F (stereo not shown) [Example 117] | – | 0.39 µg/mL (≈ 1.13 µM) | 25 µg/mL (≈ 72.2 µM) | –
O=C(Nc1ccc(C(F)(F)F)cc1)C(F)(F)C(O)(Cn1cncn1)c1ccc(F)cc1F (stereo not shown) [Example 136] | – | 0.025 µg/mL (≈ 0.0541 µM) | 12.5 µg/mL (≈ 27 µM) | –
N#CCc1ccc(NC(=O)C(F)(F)C(O)(Cn2cncn2)c2ccc(F)cc2F)cc1 (stereo not shown) [Example 138] | – | 0.1 µg/mL (≈ 0.231 µM) | 12.5 µg/mL (≈ 28.8 µM) | –
COc1ccc(NC(=O)C(F)(F)C(O)(Cn2cncn2)c2ccc(F)cc2F)cc1 (stereo not shown) [Example 139] | – | 0.05 µg/mL (≈ 0.118 µM) | 12.5 µg/mL (≈ 29.5 µM) | –
